Experimental findings from patent US11786503B2, “Pharmaceutical compositions and methods for countering chemotherapy induced cardiotoxicity” (Auransa Inc., priority 2016, dated 2023) are described below.

Read-outs that look alike come from different tables or passages of the source.

Assay [1] deals with T1, TOPOIIα (Homo sapiens, UniProt P11388).
T1 construct: purchased Inspiralis
The assay can be described thus: kDNA decatenation assay, TOPOIIα.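 For all read-outs here: kDNA incubated with one unit of TOPOIIα at 37 °C for 30 min, decatenated product resolved on 1% agarose gel, inhibition from relative band intensity.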 The class given is biochemical. The following applies: for TOPOIIα inhibition, in words: decatenation assay.

Assay [2] deals with Doxorubicin treated human iPSC-derived cardiomyocytes. Put plainly: iPSC-CM protection by myricetin analogs (Table 1). The class given is cell-based. The conditions noted are these: for cardioprotection, in words: Table 1.
Assay [3] deals with T2, TOPOIIβ (Homo sapiens, UniProt Q02880).
T2 construct: purchased Inspiralis
T2 sequence (Q02880 whole entry): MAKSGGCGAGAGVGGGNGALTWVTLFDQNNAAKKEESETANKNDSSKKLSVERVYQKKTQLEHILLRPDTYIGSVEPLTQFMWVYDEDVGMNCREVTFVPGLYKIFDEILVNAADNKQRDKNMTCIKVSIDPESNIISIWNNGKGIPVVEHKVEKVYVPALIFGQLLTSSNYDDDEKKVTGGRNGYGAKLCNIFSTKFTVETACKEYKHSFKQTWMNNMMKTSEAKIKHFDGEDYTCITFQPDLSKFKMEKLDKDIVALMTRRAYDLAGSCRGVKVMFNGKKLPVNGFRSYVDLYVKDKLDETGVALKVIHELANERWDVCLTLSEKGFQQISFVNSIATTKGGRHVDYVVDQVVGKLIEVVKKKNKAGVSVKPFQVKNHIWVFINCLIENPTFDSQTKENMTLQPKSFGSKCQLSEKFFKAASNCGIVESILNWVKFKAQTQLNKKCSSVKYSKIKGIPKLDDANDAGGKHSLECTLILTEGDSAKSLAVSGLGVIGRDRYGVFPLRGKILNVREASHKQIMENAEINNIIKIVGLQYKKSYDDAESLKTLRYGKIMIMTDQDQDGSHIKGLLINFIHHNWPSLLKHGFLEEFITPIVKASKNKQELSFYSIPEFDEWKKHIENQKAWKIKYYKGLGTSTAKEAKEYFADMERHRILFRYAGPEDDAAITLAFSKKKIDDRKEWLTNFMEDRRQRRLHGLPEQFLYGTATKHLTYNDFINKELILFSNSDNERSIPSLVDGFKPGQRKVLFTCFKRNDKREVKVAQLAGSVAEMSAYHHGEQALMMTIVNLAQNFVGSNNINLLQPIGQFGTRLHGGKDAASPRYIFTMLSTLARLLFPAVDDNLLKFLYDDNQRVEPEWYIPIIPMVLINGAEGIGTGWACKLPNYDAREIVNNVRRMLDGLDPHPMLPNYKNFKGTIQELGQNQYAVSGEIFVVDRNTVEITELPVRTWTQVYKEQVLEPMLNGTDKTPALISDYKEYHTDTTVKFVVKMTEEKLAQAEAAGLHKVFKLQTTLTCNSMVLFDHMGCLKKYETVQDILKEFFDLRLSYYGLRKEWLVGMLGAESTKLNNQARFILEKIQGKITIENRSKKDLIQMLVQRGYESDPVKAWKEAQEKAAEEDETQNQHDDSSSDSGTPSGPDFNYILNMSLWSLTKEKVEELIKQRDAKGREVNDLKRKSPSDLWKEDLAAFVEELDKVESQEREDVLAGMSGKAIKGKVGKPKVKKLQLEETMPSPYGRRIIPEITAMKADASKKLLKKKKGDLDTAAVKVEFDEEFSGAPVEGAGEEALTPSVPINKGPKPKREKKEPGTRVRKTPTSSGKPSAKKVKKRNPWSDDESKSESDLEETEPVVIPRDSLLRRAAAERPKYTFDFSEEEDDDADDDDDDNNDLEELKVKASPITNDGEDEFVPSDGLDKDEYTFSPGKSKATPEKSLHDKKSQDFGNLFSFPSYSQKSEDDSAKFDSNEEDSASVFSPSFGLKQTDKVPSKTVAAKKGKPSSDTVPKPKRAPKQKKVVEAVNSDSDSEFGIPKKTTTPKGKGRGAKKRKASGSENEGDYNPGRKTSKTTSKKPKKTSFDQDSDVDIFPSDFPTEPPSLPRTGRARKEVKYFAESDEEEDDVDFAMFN
Put plainly: kDNA decatenation assay, TOPOIIβ.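 For all read-outs here: kinetoplast DNA incubated with one unit of TOPOIIβ at 37 °C for 30 min, decatenated product resolved on 1% agarose gel, inhibition scored from relative band intensity.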 The class given is biochemical. The following applies: for TOPOIIβ inhibition, in words: decatenation assay.

The mark [4] stands for this setting: initial screen at 10 μM or 100 μM.
Where [5] appears, read: Homo sapiens, iPSC-CM, initial screen at 10 μM or 100 μM, read-out: iPSC-CM protection Max Effect (%), class symbol.
The mark [6] stands for this setting: Homo sapiens, iPSC-CM, read-out: iPSC-CM protection EC50.
The mark [7] stands for this setting: Homo sapiens, iPSC-CM, read-out: iPSC-CM protection Max Effect (%).
[8] abbreviates: Homo sapiens, iPSC-CM, read-out: iPSC-CM protection Max Effect (%), class symbol.

T1 sequence (P11388 whole entry): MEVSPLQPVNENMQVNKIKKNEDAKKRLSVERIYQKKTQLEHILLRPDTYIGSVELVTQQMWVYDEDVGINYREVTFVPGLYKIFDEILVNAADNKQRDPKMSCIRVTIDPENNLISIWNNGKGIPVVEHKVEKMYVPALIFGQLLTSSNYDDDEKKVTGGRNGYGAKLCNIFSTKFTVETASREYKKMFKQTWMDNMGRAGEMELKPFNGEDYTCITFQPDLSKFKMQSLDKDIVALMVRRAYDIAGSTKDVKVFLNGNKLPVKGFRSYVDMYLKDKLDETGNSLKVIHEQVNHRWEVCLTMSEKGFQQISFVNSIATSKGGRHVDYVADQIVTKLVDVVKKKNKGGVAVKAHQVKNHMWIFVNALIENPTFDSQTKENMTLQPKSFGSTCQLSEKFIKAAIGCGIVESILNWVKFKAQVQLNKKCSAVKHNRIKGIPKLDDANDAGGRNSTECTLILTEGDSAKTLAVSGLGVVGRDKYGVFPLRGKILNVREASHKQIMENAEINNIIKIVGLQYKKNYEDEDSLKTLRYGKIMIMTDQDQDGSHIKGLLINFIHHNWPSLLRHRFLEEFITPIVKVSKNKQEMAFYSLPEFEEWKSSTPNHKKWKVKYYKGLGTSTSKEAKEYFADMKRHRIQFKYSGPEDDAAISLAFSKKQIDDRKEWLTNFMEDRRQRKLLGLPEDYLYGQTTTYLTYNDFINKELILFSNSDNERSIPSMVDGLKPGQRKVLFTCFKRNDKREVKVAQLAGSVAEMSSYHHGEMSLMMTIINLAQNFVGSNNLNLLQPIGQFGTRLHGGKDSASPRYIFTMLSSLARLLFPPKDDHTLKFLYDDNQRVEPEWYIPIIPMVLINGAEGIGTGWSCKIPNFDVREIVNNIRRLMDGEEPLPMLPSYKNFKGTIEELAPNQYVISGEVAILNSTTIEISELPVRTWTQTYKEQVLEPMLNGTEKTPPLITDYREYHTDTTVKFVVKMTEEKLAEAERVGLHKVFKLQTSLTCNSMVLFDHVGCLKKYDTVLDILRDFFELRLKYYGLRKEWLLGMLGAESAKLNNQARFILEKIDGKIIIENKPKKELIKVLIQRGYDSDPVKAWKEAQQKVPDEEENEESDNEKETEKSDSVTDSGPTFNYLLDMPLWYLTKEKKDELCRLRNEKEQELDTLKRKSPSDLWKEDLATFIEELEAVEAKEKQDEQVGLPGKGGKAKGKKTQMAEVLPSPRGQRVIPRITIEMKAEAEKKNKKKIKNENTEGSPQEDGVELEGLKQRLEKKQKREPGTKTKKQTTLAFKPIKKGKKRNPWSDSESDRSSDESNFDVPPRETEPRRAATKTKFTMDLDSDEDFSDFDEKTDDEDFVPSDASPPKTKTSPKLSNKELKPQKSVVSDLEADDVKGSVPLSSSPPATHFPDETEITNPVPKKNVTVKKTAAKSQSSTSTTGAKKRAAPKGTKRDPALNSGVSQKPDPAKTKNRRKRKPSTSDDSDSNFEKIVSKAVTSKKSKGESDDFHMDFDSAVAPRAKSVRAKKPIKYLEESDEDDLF

Turning to `COc1cc(-c2oc3cc(O)ccc3c(=O)c2O)cc(OC)c1OC` [Compound 35, 3',4',5'-O-trimethylrobinetin], in assay [1], the “TOPIIα Inhibition” value is “−” and the “TOPOIIα inhibition, in words” value is “entirely failed to display cardioprotection or TOPOII inhibition”. Besides, in assay [2], the Rescue result was “−” and the “cardioprotection, in words” value was “entirely failed to display cardioprotection or TOPOII inhibition”. In addition, the “iPSC-CM protection Max Effect (%), class symbol” value in assay [2] (setting [4]) is “† (Compounds failed to exhibit >30% protection Max Effect at 10 μM or 100 μM on initial screen.)”. For the same compound, in assay [3], the “TOPIIβ Inhibition” value is listed as “−” and the “TOPOIIβ inhibition, in words” value is “entirely failed to display cardioprotection or TOPOII inhibition”.

Regarding `COc1ccc2c(=O)c(OC)c(-c3cc(OC)c(OC)c(OC)c3)oc2c1` [3,7,3′,4′,5′-O-pentamethylrobinetin], the “TOPOIIα inhibition, in words” value in assay [1] is “entirely failed to display cardioprotection or TOPOII inhibition”. Further, in assay [2], the “cardioprotection, in words” value is recorded as “entirely failed to display cardioprotection or TOPOII inhibition”. In addition, the “TOPOIIβ inhibition, in words” value in assay [3] is recorded as “entirely failed to display cardioprotection or TOPOII inhibition”.

Take `O=c1c(O)c(-c2ccccc2)oc2cc(O)ccc12` [Compound 20, 3,7-dihydroxyflavone]: the Rescue result in assay [2] is “−”.

On to `O=c1c(O)c(-c2cccc(O)c2)oc2cc(O)ccc12` [Compound 18, 3,7,3′-trihydroxyflavone], for which, in assay [2], the Rescue entry is recorded as “−”. Moreover, the Emax in assay [2] (setting [5]) was below 30%.

With `O=c1cc(-c2cccc(O)c2)oc2cc(O)ccc12` [Compound 21, 7,3′-dihydroxyflavone], the Rescue result in assay [2] is reported as “−”. Further, in assay [2] (setting [5]), the Emax was below 30%.

`O=c1cc(-c2ccc(O)cc2)oc2cc(O)cc(O)c12` [Compound 13, 5,7,4′,-trihydroxyflavone]: the Rescue result in assay [2] is given as “−”. In assay [2] (setting [5]), the Emax was below 30%.

Consider `COc1cc(-c2oc3cc(O)cc(O)c3c(=O)c2O)cc(OC)c1OC` [3′,4′,5′-O-trimethylmyricetin], for which the “TOPOIIα inhibition, in words” value in assay [1] is “entirely failed to display cardioprotection or TOPOII inhibition”. Further, the “cardioprotection, in words” value in assay [2] is given as “entirely failed to display cardioprotection or TOPOII inhibition”. Also, the “TOPOIIβ inhibition, in words” value in assay [3] is listed as “entirely failed to display cardioprotection or TOPOII inhibition”.

On to `O=c1c(O)c(-c2ccc(O)c(O)c2)oc2ccccc12` [Compound 12, 3,3′,4′-trihydroxyflavone], for which the “TOPIIα Inhibition” value in assay [1] was “−”. Further, in assay [2], the Rescue entry is reported as “+”. Moreover, the EC50 in assay [2] (setting [6]) was found to be 6.43 µM. Moreover, the Emax in assay [2] (setting [7]) worked out at 16%. Also, in assay [3], the “TOPIIβ Inhibition” value is “−”.

`COc1ccc2c(=O)c(O)c(-c3cc(OC)c(OC)c(OC)c3)oc2c1` [Compound 36, 7,3′,4′,5′-O-tetramethylrobinetin]: in assay [1], the “TOPIIα Inhibition” value is given as “−”. In addition, the Rescue entry in assay [2] is “−”. Moreover, the “iPSC-CM protection Max Effect (%), class symbol” value in assay [2] (setting [4]) was “† (Compounds failed to exhibit >30% protection Max Effect at 10 μM or 100 μM on initial screen.)”. The “TOPIIβ Inhibition” value in assay [3] is recorded as “−”.

Consider `O=c1cc(-c2cc(O)cc(O)c2)oc2ccccc12` [Compound 26, 3′,5′-dihydroxyflavone], for which, in assay [2], the Rescue entry was “−”. Besides, in assay [2] (setting [8]), the Emax was below 30%.

On to `O=c1cc(-c2ccccc2)oc2cc(O)cc(O)c12` [Compound 23, 5,7-dihydroxyflavone], for which the Rescue entry in assay [2] is “−”. Besides, the Emax in assay [2] (setting [5]) was below 30%.

As for `O=c1cc(-c2ccc(O)cc2)oc2ccccc12` [Compound 17, 4′-hrydroxyflavone], the Rescue result in assay [2] is given as “−”. Moreover, the “iPSC-CM protection Max Effect (%), class symbol” value in assay [2] (setting [4]) is given as “† (Compounds failed to exhibit >30% protection Max Effect at 10 μM or 100 μM on initial screen.)”.

Take `O=c1cc(-c2cccc(O)c2)oc2ccccc12` [Compound 27, 3′-hydroxyflavone]: the Rescue result in assay [2] is on record as “−”. For the same compound, in assay [2] (setting [5]), the Emax is below 30%.

With `COc1c(O)cc(-c2oc3cc(O)cc(O)c3c(=O)c2O)cc1O` [4′-O-methylmyricetin], the “TOPOIIα inhibition, in words” value in assay [1] was “without TOPOII inhibition”. The “cardioprotection, in words” value in assay [2] is “conferred cardioprotection”. Besides, the EC50 in assay [2] (approximate, read-out: EC50 for cardioprotection) was around 48.7 µM. Also, in assay [3], the “TOPOIIβ inhibition, in words” value is recorded as “without TOPOII inhibition”.

In the case of `O=c1cc(-c2cc(O)c(O)c(O)c2)oc2ccccc12` [3′,4′,5′-trihydroxyflavone], the EC50 in assay [2] (Homo sapiens, Cardiomyocyte, read-out: potency for cardioprotection) is at least 30 µM.

Take `COc1cc(-c2oc3cc(O)cc(O)c3c(=O)c2O)cc(OC)c1O` [Compound 33, 3′,5′-O-dimethylmyricetin]: in assay [1], the “TOPIIα Inhibition” value is given as “−”. Also, the Rescue entry in assay [2] is given as “−”. In addition, the “iPSC-CM protection Max Effect (%), class symbol” value in assay [2] (setting [4]) is listed as “† (Compounds failed to exhibit >30% protection Max Effect at 10 μM or 100 μM on initial screen.)”. The “TOPIIβ Inhibition” value in assay [3] is “−”.

As to `O=c1cc(-c2ccc(O)cc2)oc2cc(O)ccc12` [Compound 15, 7,4′-dihydroxyflavone], in assay [2], the Rescue result is recorded as “−”. The Emax in assay [2] (setting [5]) was below 30%.

With `COc1ccc2c(=O)c(O)c(-c3cc(OC)c(OC)c(OC)c3)oc2c1` [7,3′,4′,5′-O-tetramethylrobinetin], the “TOPOIIα inhibition, in words” value in assay [1] is reported as “entirely failed to display cardioprotection or TOPOII inhibition”. Besides, in assay [2], the “cardioprotection, in words” value was “entirely failed to display cardioprotection or TOPOII inhibition”. Besides, in assay [3], the “TOPOIIβ inhibition, in words” value is given as “entirely failed to display cardioprotection or TOPOII inhibition”.

Consider `O=c1cc(-c2ccc(O)c(O)c2)oc2cc(O)cc(O)c12` [Compound 9, 5,7,3′,4′-tetrahydroxyflavone], for which, in assay [1], the “TOPIIα Inhibition” value is listed as “−”. Also, the EC50 in assay [2] (setting [6]) amounted to 9.67 µM. Further, in assay [2] (setting [7]), the Emax amounted to 62%. Besides, the “TOPIIβ Inhibition” value in assay [3] is “−”.

Take `COc1c(O)cc(-c2oc3cc(O)cc(O)c3c(=O)c2O)cc1O` [Compound 32, 4′-O-methylmyricetin]: the “TOPIIα Inhibition” value in assay [1] is reported as “−”. In assay [2], the Rescue result is on record as “+” and the “iPSC-CM protection Max Effect (%)” value came to 68%. In addition, the EC50 in assay [2] (read-out: iPSC-CM protection EC50) stood at 48.6 µM. For the same compound, in assay [3], the “TOPIIβ Inhibition” value is given as “−”.

Turning to `O=c1cc(-c2ccccc2)oc2ccccc12` [Compound 28, flavone], in assay [2], the Rescue entry is on record as “−”. Further, the Emax in assay [2] (setting [5]) is below 30%.

In the case of `O=c1c(O)c(-c2ccc(O)cc2)oc2ccccc12` [Compound 16, 3,4′-dihydroxyflavone], the Rescue entry in assay [2] was “−”. Moreover, in assay [2] (setting [5]), the Emax is below 30%.

With `O=c1c(O)c(-c2cccc(O)c2)oc2ccccc12` [Compound 22, 3,3′-dihydroxyflavone], in assay [2], the Rescue result is recorded as “−”. Moreover, the Emax in assay [2] (setting [5]) is below 30%.

Consider `O=c1c(O)c(-c2ccccc2)oc2cc(O)cc(O)c12` [Compound 19, 3,5,7-trihydroxyflavone], for which the Rescue entry in assay [2] is listed as “−”. Further, the Emax in assay [2] (setting [5]) is below 30%.

Turning to `O=c1c(O)c(-c2ccc(O)c(O)c2)oc2cc(O)ccc12` [Compound 5, 3,7,3′,4′-tetrahydroxyflavone], the EC50 in assay [2] (setting [6]) came to 16.3 µM. In addition, the Emax in assay [2] (setting [7]) was 36%.

Take `O=c1cc(-c2ccccc2)oc2cc(O)ccc12` [Compound 24, 7-hydroxyflavone]: in assay [2], the Rescue entry was “−”. Also, the Emax in assay [2] (setting [8]) is below 30%.

With `O=c1cc(-c2ccc(O)c(O)c2)oc2ccccc12` [Compound 14, 3′,4′-dihydroxyflavone], in assay [2], the Rescue result was “−”. The Emax in assay [2] (setting [5]) was below 30%.

As for `O=c1c(O)c(-c2ccccc2)oc2ccccc12` [Compound 25, 3-hydroxyflavone], in assay [2], the Rescue result is reported as “−”. Moreover, the Emax in assay [2] (setting [5]) was below 30%.
